# Tested on: Male Sprague-Dawley rats
# Assay: Formalin test (flinching behaviour)
# Type: in vivo, rat
# Details: 10 mg/kg i.v. 10 min prior to formalin in the hind limb; compared with vehicle; n=8
# Experimental: Male Sprague-Dawley rats (body weight, 180-300 g) are housed together in groups of four animals under standard conditions with unrestricted access to food and water. Rats are housed in the room in which the testing procedure is performed to minimize any stress response to novel environmental cues. All experiments are conducted according to the ethical guidelines for investigations of experimental pain in conscious animals (Zimmerman, 1983).
# Separate groups of rats are used for the different experiments such that each animal is used on one occasion only. All experiments for a given compound are performed using age matched animals in an attempt to avoid variability between experiments. Prior to initiation of the formalin test, 4 rats are habituated in separate testing cages for 15-20 min. […] On the basis of the response pattern, two distinct phases of nociceptive behavior are observed, characterized by flinching of the affected paw and scored (Blackburn-Munro et al., Eur J Pharmacol. 2002 Jun. 12;445(3):231-8). […]
# All data is analysed using Sigmastat 2.03 statistical software (Jandel Scientific GmbH, Germany) and expressed as mean±S.E.M. Two Way Repeated Measures Analysis of Variance (Two Way RM ANOVA) is used to analyse formalin test data and where applicable, this is followed by post-hoc analysis using Bonferroni's t-test to allow comparisons between groups. […]
smiles,measurement,value
C=CC1CN2CCC1CC2[C@@H](OC(=O)CCC1CCCC1)c1ccnc2ccccc12 (stereo partly shown) [Compound A],flinching behaviour in Formalin test,attenuated flinching behaviour

# — US20070004680A1, “Compositions and methods for modulating gated ion channels” (PainCeptor Pharma Corporation, priority 2004, published 2007)
